pIC50: −log10 of the molar value.
Tests used:
[1] = biological target: T1, Rheb-dependent mTORC1 kinase activity (Homo sapiens, UniProt Q15382); test: Rheb-dependent mTORC1 in vitro kinase assay (Rheb-IVK); assay type: biochemical; conditions: for inhibition of mTORC1 activity in the Rheb-IVK: result in words
T1 construct: using full-length Rheb and mTORC1 purified from mammalian cells via a Flag-Raptor handle; made in house; host or cells: HA-GST-Rheb: Freestyle 293-F cells transfected with pRK5-HA-GST-Rheb; mTORC1: HEK-293E cells stably expressing FLAG-Raptor
T1 sequence (Q15382 1-181 limits assumed): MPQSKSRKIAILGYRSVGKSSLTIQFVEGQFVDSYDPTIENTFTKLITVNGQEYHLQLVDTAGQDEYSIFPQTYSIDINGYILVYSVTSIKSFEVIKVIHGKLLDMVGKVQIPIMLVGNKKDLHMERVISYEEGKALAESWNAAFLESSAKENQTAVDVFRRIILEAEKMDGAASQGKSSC

[2] = tested on: T389pS6K1 (mTORC1) in PC3 cells; test: Chronic treatment of PC3 cells, T389pS6K1 Western blot; assay type: cell-based, human; conditions: PC3, replete, 24 h; NR1 30 µM, rapamycin 100 nM
Protocol: (§1) MCF-7 cells were serum-starved for 16 h and treated with compound for 90 min before cell lysis and Western blot analysis. For insulin-stimulated cells, 100 nM insulin was added 30 min before cell lysis. For EGF-stimulated cells, 100 ng mL^−1 EGF was added 10 min before cell lysis. c Rap1 activity was detected in lysates loaded in vitro with either GDP or GTPγS and treated with NR1 at the indicated concentrations. This was followed by a subsequent pulldown of GST-RalGDS-RBD. Bound Rap1 was detected by Western blot. d Evaluation of NR1 in a LAM patient-derived cell line (TRI102) under replete and serum-starved conditions. For replete conditions, TRI102 cells were treated for 90 min with compound in DMEM + 10% FBS. For serum-starved conditions, TRI102 cells were serum-starved 16 h and then treated for 90 min with compound prior to cell lysis and Western blot analysis. e HEK293 cells co-transfected with the indicated mTOR constructs and HA-GST-S6K1 were starved of amino acids or treated with NR1. To assess mTORC1 activity, an HA IP was performed and Western blots probed for ^T389pS6K1. f Chronic treatment of PC3 cells with NR1 to evaluate the inhibition of mTORC1 (using ^T389pS6K1) versus mTORC2 (using ^S473pAKT). PC3 cells were treated with compound under replete conditions for 24 h prior to cell lysis and Western blot analysis.
(§2) Accordingly, a hallmark of a selective mTORC1 inhibitor such as NR1 would be the lack of mTORC2 inhibition irrespective of the duration of treatment. PC3 cells are sensitive to mTORC2 inhibition with long-term rapamycin treatment. Indeed, upon treatment with rapamycin for 24 h, both ^T389pS6K1 and ^S473pAKT were lowered, indicating inhibitory effects on both mTORC1 and mTORC2, respectively.
(§3) For Western-based signaling assays, cells were treated for either 90 min or 2–24 h as indicated before lysis, normalization, and Western analysis. Cells were lysed in Triton lysis buffer: 1% Triton X-100, 50 mM HEPES pH 7.4, 100 mM NaCl, 2 mM EDTA, 10 mM β-glycerophosphate, 10 mM Na-pyrophosphate, protease inhibitor.

[3] = tested on: S473pAKT (mTORC2) in PC3 cells; test: Chronic treatment of PC3 cells, S473pAKT Western blot; assay type: cell-based, human; conditions: PC3, replete, 24 h; NR1 30 µM, rapamycin 100 nM
Protocol: as §1, §2, §3

Row | SMILES | pIC50 ([1]; LanthaScreen TR-FRET format, T46p4E-BP1 antibody, read-out: IC50 in the Rheb-IVK) | inhibition of mTORC1 activity in the Rheb-IVK [1] | T389pS6K1 after 24 h treatment [2] | S473pAKT after 24 h treatment [3]
1 | CCC(=O)N1CCN(c2ccc(-n3c(=O)ccc4cnc5ccc(-c6cnc7ccccc7c6)cc5c43)cc2C(F)(F)F)CC1 [Torin-1] | 8.70 | inhibited mTORC1 activity | – | –
2 | CO[C@H]1C[C@@H]2CC[C@@H](C)[C@@](O)(O2)C(=O)C(=O)N2CCCC[C@H]2C(=O)O[C@H]([C@H](C)C[C@@H]2CC[C@@H](O)[C@H](OC)C2)CC(=O)[C@H](C)/C=C(\C)[C@@H](O)[C@@H](OC)C(=O)[C@H](C)C[C@H](C)/C=C/C=C/C=C/1C [rapamycin, reference compound] | – | no inhibition | lowered | lowered

Source: paper PMC5803267, “A small molecule inhibitor of Rheb selectively targets mTORC1 signaling” (Nature Communications, 2018)
